Our source for the GI50 and TGI values is PubChem BioAssay (NCI).

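Where inhibition never reached the appropriate level, the endpoint shown equals the highest concentration tested. Otherwise, values were interpolated linearly from a five-concentration, 48-hour dose response in 96-well plates. GI50: concentration for 50% inhibition of growth. TGI denotes the concentration required for complete inhibition of growth.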

Test systems include A549 NSCLC; HCT-116 colon; HS 578T breast; K-562 leukemia; MDA-MB-231 breast; RXF 393 renal; SF-268 CNS; SNB-75 CNS; CAKI-1 renal; SR leukemia.
Common to all, as to experiment: inhibition of tumour cell growth, NCI panel, 48 h

In the case of `COc1ccc(CNC(=O)c2c(C)n([O-])c3cc(F)c(F)cc3[n+]2=O)cc1`, the GI50 in the assay on A549 NSCLC is 17.6 µM; with HCT-116 colon, 14.1 µM; with HS 578T breast it was 2.11 µM; in the assay on K-562 leukemia, 1.93 µM; in the assay with MDA-MB-231 breast, 12.2 µM; in the assay with RXF 393 renal it was 8.2 µM. Moreover, the results for the GI50 with SF-268 CNS and in the assay with SNB-75 CNS were 4.4 µM and 0.461 µM, respectively. In addition, the TGI in the assay with A549 NSCLC is 36.8 µM; with HCT-116 colon, 27.1 µM; with HS 578T breast it was 5.96 µM; with K-562 leukemia it was 4.05 µM; in the assay with MDA-MB-231 breast, 25.5 µM; with RXF 393 renal it was 23.4 µM. Also, the TGI in the assay on SF-268 CNS was determined as 15.7 µM; in the assay on SNB-75 CNS it was 5.58 µM.
As for `COc1ccc(-c2cc(=O)c3cccnc3[nH]2)cc1`, the TGI with A549 NSCLC is > 100 µM; with CAKI-1 renal, > 100 µM; with HCT-116 colon, 80.3 µM; with HS 578T breast, > 100 µM; with K-562 leukemia it was 88.6 µM; in the assay with MDA-MB-231 breast it was > 100 µM. Moreover, the TGI in the assay on RXF 393 renal and in the assay on SF-268 CNS was > 100 µM throughout. In addition, in the assay on HCT-116 colon, the GI50 is 17.6 µM.
On to `CN(C)c1ccc(/C=N/NC(=O)c2cnc3ccccc3c2)cc1`, for which the TGI is > 100 µM in the assay with A549 NSCLC; > 100 µM in the assay on CAKI-1 renal; > 100 µM in the assay with HCT-116 colon; 63.5 µM in the assay on HS 578T breast; > 100 µM with K-562 leukemia; > 100 µM with MDA-MB-231 breast. The TGI came to 54.9 µM in the assay on RXF 393 renal, 53.3 µM in the assay on SF-268 CNS and 50.6 µM in the assay on SNB-75 CNS.
Take `CC1SC(c2cccc(Cl)c2)N(NC(=O)C(O)c2ccccc2)C1=O` (stereo unspecified): the GI50 with A549 NSCLC was 86.7 µM; with CAKI-1 renal, > 100 µM; in the assay with HCT-116 colon it was > 100 µM; in the assay on HS 578T breast, > 100 µM; in the assay with K-562 leukemia, 69.4 µM; in the assay with MDA-MB-231 breast it was > 100 µM. The values for the GI50 with RXF 393 renal, in the assay on SF-268 CNS and with SNB-75 CNS were 80.6 µM, > 100 µM and 79.1 µM, respectively. Besides, the TGI with A549 NSCLC, in the assay with CAKI-1 renal, with HCT-116 colon, in the assay with HS 578T breast, in the assay with K-562 leukemia and with MDA-MB-231 breast was > 100 µM throughout. Besides, the TGI in the assay on RXF 393 renal, with SF-268 CNS and with SNB-75 CNS was > 100 µM each time.
Regarding `O=C(Nc1ccc(N2CCNCC2)cn1)c1[nH]ncc1Nc1ncnc2sc3c(c12)CCC3`, the GI50 was 1.67 µM in the assay with A549 NSCLC; 1.4 µM with CAKI-1 renal; 0.542 µM in the assay on HCT-116 colon; 3.38 µM with HS 578T breast; 0.207 µM in the assay on K-562 leukemia; 1.69 µM in the assay on MDA-MB-231 breast. Further, the GI50 in the assay with SNB-75 CNS is 1.6 µM; in the assay on SR leukemia, 0.246 µM. For the same compound, the TGI in the assay on A549 NSCLC was determined as 3.5 µM; in the assay with CAKI-1 renal, 3.26 µM; in the assay on HCT-116 colon it was 2.18 µM; in the assay with HS 578T breast it was 14.6 µM; with K-562 leukemia it was 0.498 µM; in the assay on MDA-MB-231 breast, 3.28 µM. In addition, the results for the TGI with SNB-75 CNS and with SR leukemia were 4.04 µM and 0.872 µM, respectively.
With `COc1ccc(OC)c(/C=C/C(=O)c2ccc3cc(OC)ccc3c2)c1`, the GI50 was 9.52 µM with A549 NSCLC; 1.2 µM in the assay with CAKI-1 renal; > 15 µM in the assay on HCT-116 colon; > 33.3 µM in the assay with HS 578T breast; 6.46 µM with K-562 leukemia; > 50 µM in the assay on MDA-MB-231 breast. Also, the results for the GI50 in the assay on SF-268 CNS and in the assay on SNB-75 CNS were > 14.3 µM and 1.78 µM, respectively. For the same compound, the TGI was > 32.4 µM with A549 NSCLC; 10.6 µM with CAKI-1 renal; > 50 µM in the assay with HCT-116 colon; > 50 µM in the assay on HS 578T breast; > 50 µM in the assay on K-562 leukemia; > 50 µM with MDA-MB-231 breast. The TGI is > 50 µM in the assay on SF-268 CNS and 4.53 µM in the assay on SNB-75 CNS.
For `CSc1nc(-c2cccc(NC(=O)CCl)c2)c(C#N)c(=O)n1C`, the GI50 in the assay on A549 NSCLC was 3.28 µM; in the assay with CAKI-1 renal, 1.68 µM; with HCT-116 colon, 0.621 µM; with HS 578T breast it was 2.33 µM; in the assay on K-562 leukemia it was 1.28 µM; with MDA-MB-231 breast it was 1.6 µM. For the same compound, the values for the GI50 in the assay on RXF 393 renal and in the assay on SNB-75 CNS were 1.54 µM and 1.19 µM, respectively. Also, the TGI is 17.4 µM in the assay with A549 NSCLC; 3.07 µM with CAKI-1 renal; 4.07 µM with HCT-116 colon; 7.45 µM with HS 578T breast; > 100 µM in the assay with K-562 leukemia; 3.38 µM in the assay on MDA-MB-231 breast. Besides, the TGI worked out at 3.03 µM with RXF 393 renal and 2.47 µM in the assay with SNB-75 CNS.
Take `O=C1CC2OCC=C3CN4CCC56c7ccccc7N1C5C2C3CC46` (stereo unspecified) (tested in a mixture with another compound): the GI50 in the assay on A549 NSCLC is > 50 µg/mL; in the assay with CAKI-1 renal, > 50 µg/mL; in the assay with HCT-116 colon it was > 50 µg/mL; in the assay on HS 578T breast, > 50 µg/mL; in the assay with K-562 leukemia, 3.44 µg/mL; with MDA-MB-231 breast it was > 50 µg/mL. Besides, the GI50 in the assay on RXF 393 renal, in the assay with SF-268 CNS and with SNB-75 CNS was > 50 µg/mL throughout. The TGI with A549 NSCLC, in the assay on CAKI-1 renal, in the assay with HCT-116 colon, with HS 578T breast, in the assay on K-562 leukemia and in the assay on MDA-MB-231 breast was > 50 µg/mL throughout. The TGI with RXF 393 renal, in the assay on SF-268 CNS and in the assay on SNB-75 CNS was > 50 µg/mL in each case.
Turning to `CC1(C)N=C(N)N=C(N)N1c1ccc(CCC(=O)Nc2cccc(S(=O)(=O)F)c2)cc1`, the GI50 is 3.32 µM in the assay on A549 NSCLC; > 100 µM in the assay on CAKI-1 renal; 3.96 µM with HCT-116 colon; > 100 µM in the assay on HS 578T breast; 1.35 µM in the assay on K-562 leukemia; 86.8 µM in the assay with MDA-MB-231 breast. In addition, the figures for the GI50 in the assay with RXF 393 renal, with SF-268 CNS and in the assay with SNB-75 CNS were 56.8 µM, 4.74 µM and 5.34 µM, respectively. Moreover, the TGI with A549 NSCLC, with CAKI-1 renal, with HCT-116 colon, in the assay with HS 578T breast, in the assay with K-562 leukemia and in the assay with MDA-MB-231 breast was > 100 µM each time. In addition, the TGI in the assay with RXF 393 renal, in the assay on SF-268 CNS and with SNB-75 CNS was > 100 µM each time.
